15 compounds from patent US6806283B2, “Selective serotonin receptor antagonists and therapeutic applications thereof” (Virginia Commonwealth University, priority 2002, dated 2004) can be followed below.

Where two headings read alike, the source gives them in different places.

Test [1] addresses 5-HT2A serotonin receptor (Homo sapiens, UniProt P28223). The test is described as follows: 5-HT2A serotonin receptor radioligand binding assay (3H-ketanserin).
Protocol: Binding assays were conducted in which the affinity of each of the compounds of interest for the 5-HT2A serotonin receptor was tested. Assays were conducted with the 5-HT2A receptor in buffer consisting of 50 mM Tris-Cl, 0.5 mM EDTA, 5 mM MgCl2, pH=7.4.
The target in another test is H1 histamine receptor (Homo sapiens, UniProt P35367). The test is described as follows: H1 histamine receptor radioligand binding assay (3H-pyrilamine). The procedure: Binding assays were also conducted in which the affinity of selected compounds of interest for the H1 histamine receptor was tested. […] The H1 determinations used ^3H-pyrilamine as the radioligand with chlorpheniramine as the reference compound.

In the next test the target is dopamine D2 receptor (Homo sapiens, UniProt P14416). The test is described as follows: Affinity for dopamine D2 receptor. Format: binding.
The target in another test is T1, 5-HT2c receptor (Homo sapiens, UniProt P28335).
T1 sequence (P28335 33-458): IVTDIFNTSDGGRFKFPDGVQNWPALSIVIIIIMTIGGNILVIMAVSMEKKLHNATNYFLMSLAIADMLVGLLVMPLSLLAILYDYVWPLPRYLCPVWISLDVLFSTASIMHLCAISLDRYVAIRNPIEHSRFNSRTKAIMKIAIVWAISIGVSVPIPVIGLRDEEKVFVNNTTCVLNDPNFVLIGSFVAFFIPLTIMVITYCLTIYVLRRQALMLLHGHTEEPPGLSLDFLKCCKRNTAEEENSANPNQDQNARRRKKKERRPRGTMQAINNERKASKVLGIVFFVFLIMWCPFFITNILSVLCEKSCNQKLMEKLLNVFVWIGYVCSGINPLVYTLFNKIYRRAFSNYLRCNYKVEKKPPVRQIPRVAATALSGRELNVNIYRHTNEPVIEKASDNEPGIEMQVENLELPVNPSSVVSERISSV
The test is described as follows: Affinity for 5-HT2c receptor. Format: binding.

The target in another test is serotonin transporter (Homo sapiens, UniProt P31645). The test is described as follows: Affinity for serotonin transporter. Format: binding.
Test [2] addresses norepinephrine transporter (Homo sapiens, UniProt P23975). The test is described as follows: Affinity for norepinephrine transporter. It is filed as binding.
The next test addresses 5-HT2 receptor (Homo sapiens, UniProt P28223). The test is described as follows: Affinity for 5-HT2 receptors. Format: binding.
Where [3] appears, read: 3H-pyrilamine radioligand, chlorpheniramine reference, read-out: H1 Ki.
Where [4] appears, read: in words, read-out: affinity class for histamine H1 receptor.

Sequence of 5-HT2A serotonin receptor (P28223 whole entry): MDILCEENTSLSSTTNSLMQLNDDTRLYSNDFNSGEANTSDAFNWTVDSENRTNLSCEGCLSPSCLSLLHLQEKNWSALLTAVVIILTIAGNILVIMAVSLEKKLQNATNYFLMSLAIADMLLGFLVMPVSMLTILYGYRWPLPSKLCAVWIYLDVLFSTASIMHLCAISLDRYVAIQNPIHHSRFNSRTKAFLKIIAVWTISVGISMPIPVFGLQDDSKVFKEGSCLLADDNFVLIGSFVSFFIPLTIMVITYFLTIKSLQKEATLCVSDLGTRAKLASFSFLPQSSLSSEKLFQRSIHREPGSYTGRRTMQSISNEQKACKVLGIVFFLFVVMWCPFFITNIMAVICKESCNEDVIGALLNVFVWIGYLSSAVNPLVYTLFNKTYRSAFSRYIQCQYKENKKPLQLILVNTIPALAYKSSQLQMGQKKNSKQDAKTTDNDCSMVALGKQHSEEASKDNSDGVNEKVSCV
Sequence of H1 histamine receptor (P35367 whole entry): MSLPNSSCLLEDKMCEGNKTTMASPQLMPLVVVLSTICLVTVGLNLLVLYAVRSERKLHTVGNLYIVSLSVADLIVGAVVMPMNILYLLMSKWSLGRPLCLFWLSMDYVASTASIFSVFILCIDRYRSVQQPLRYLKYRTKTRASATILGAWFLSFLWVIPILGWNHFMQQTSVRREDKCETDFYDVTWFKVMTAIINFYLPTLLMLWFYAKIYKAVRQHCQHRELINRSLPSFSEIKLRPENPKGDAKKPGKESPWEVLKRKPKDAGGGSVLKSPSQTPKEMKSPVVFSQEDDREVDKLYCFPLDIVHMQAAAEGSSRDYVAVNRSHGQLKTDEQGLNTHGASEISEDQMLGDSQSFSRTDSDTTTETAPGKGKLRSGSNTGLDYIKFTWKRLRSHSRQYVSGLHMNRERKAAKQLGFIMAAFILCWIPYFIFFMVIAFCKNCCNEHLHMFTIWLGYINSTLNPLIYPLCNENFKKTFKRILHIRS
Sequence of 5-HT2 receptor (P28223 whole entry): as the sequence (P28223 whole entry) above
Sequence of serotonin transporter (P31645 whole entry): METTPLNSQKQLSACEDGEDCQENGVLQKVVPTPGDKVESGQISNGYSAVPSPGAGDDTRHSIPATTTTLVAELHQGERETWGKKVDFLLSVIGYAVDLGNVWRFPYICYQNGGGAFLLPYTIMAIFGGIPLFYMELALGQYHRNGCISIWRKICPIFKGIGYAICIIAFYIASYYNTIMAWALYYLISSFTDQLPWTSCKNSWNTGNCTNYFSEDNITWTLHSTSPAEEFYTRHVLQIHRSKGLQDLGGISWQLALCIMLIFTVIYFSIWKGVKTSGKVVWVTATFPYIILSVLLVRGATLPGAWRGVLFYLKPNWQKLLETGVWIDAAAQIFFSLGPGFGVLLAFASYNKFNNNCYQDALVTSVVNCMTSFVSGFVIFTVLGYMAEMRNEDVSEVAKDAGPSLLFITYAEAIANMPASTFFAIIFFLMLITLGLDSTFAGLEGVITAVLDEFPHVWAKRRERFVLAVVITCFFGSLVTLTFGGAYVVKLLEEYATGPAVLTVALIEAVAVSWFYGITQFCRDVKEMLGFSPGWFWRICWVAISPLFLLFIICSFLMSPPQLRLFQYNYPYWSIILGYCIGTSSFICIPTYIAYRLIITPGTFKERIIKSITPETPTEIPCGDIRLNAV
Sequence of dopamine D2 receptor (P14416 whole entry, species assumed): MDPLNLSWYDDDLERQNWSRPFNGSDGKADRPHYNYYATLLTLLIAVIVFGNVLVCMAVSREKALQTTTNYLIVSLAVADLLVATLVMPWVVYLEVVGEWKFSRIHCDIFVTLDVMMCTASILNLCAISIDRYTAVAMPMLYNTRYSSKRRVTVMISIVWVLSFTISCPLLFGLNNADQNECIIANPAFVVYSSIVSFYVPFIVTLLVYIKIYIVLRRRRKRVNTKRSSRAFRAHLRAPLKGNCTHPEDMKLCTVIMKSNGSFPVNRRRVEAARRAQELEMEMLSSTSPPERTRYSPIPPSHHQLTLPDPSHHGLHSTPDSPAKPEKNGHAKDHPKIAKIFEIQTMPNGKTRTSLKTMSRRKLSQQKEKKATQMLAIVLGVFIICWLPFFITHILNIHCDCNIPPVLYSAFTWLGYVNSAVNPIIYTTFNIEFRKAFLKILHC
Sequence of norepinephrine transporter (P23975 whole entry, species assumed): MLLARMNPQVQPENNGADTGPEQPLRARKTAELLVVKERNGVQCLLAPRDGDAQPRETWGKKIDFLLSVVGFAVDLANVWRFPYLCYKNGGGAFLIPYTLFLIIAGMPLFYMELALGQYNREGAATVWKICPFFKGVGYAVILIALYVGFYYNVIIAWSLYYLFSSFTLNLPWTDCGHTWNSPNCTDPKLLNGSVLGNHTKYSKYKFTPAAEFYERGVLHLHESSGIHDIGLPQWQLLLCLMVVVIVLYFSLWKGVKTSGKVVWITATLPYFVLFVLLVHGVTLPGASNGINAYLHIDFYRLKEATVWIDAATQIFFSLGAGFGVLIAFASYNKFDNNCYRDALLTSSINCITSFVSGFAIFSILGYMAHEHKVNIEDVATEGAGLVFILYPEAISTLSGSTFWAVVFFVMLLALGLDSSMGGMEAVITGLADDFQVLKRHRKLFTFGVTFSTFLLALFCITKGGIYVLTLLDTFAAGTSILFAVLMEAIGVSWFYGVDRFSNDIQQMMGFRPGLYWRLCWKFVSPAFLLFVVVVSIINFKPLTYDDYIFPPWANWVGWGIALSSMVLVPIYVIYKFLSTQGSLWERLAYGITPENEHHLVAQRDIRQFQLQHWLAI

With `CCCCCCc1ccc2c(c1)Cc1ccccc1C21CCNC1` (stereo not drawn) [Compound 21, 3-n-Hexyl-9,9-[spiro-3′-pyrrolidinyl]-9,10-dihydroanthracene], the Ki in test [1] amounted to 0.006 µM; at H1 histamine receptor (setting [3]) it was 1.6 µM.
`c1ccc(CN2CCC3(C2)c2ccccc2Cc2ccccc23)cc1` [Compound 7, Spiro[9,10-dihydroanthracene]-9,3′-(1-benzyl)-pyrrolidine] returned a Ki in test [1] of 0.22 µM.
As for `c1ccc(-c2ccc3c(c2)Cc2ccccc2C32CCNC2)cc1` (stereo not drawn) [Compound 25, 3-(3-Phenyl)-9,9-[spiro-3′-pyrrolidinyl]-9,10-dihydroanthracene], the Ki in test [1] worked out at 0.018 µM.
In test [1], `CC1(C)c2ccccc2C2(CCNC2)c2ccccc21` [Compound 12, Spiro[-(10,10-dimethyl)-9,10-dihydroanthracene]-9,3′-pyrrolidine] yielded a Ki of 0.068 µM.
`COc1ccc2c(c1)Cc1ccccc1C21CCN(Cc2ccccc2)C1` (stereo not drawn) [Compound 16, 3-Methoxy-9,9-[spiro-3′-(n-benzyl)-pyrrolidinyl]-9,10-dihydroanthracene]: the Ki is 1 µM in test [1], 0.074 µM on H1 histamine receptor (setting [3]) and at most 0.1 µM on H1 histamine receptor (setting [4]).
On the same counts, the results for `c1ccc2c(c1)Sc1ccccc1C21CCNC1` [Compound 36, Spiro[thioxanthenyl]-9,3′-pyrrolidine] are 0.005 µM, 0.006 µM and at most 0.1 µM.
For the compound `c1ccc(CCCc2ccc3c(c2)Cc2ccccc2C32CCN(Cc3ccccc3)C2)cc1` (stereo not drawn) [Compound 22, 3-(3-Phenylpropyl)-9,9-[spiro-3′-(n-benzyl)-pyrrolidinyl]-9,10-dihydroanthracene], the Ki in test [1] was found to be 0.998 µM.
With `COc1ccc2c(c1)Cc1ccccc1C21CCNC1` (stereo not drawn) [Compound 17, 3-Methoxy-9,9-[spiro-3′-pyrrolidinyl]-9,10-dihydro-anthracene], the Ki in test [1] is 0.0037 µM; on H1 histamine receptor (setting [3]) it was 0.04 µM; on H1 histamine receptor (setting [4]), at most 0.1 µM.
Take `c1ccc(CCCc2ccc3c(c2)Cc2ccccc2C32CCNC2)cc1` (stereo not drawn) [Compound 23, 3-(3-Phenylpropyl)-9,9-[spiro-3′-pyrrolidinyl]-9,10-dihydroanthracene]: the Ki in test [1] came out at 0.0035 µM.
On to `CN1CCC2(C1)c1ccccc1Cc1ccccc12` [Compound 6, Spiro[9,10-dihydroanthracene]-9,3′-(1-methyl)-pyrrolidine], for which, in test [1], the Ki is 0.046 µM.
With `Oc1ccc2c(c1)Cc1ccccc1C21CCNC1` (stereo not drawn) [Compound 19, Spiro[-(3-hydroxy)-9,10-dihydroanthracene]-9,3′-pyrrolidine], in test [1], the Ki came out at 0.0092 µM.
Still for that read-out and setting: with `CCCCCCc1ccc2c(c1)Cc1ccccc1C21CCN(Cc2ccccc2)C1` (stereo not drawn) [Compound 20, 3-n-Hexyl-9,9-[spiro-3′-(n-benzyl)-pyrrolidinyl]-9,10-dihydroanthracene] the figure was 2.03 µM.
In the case of `c1ccc2c(c1)Cc1ccccc1C21CCNC1` [Compound 5, Spiro[9,10-dihydroanthracene]-9,3′-pyrrolidine], the Ki at dopamine D2 receptor was 5.04 µM; at 5-HT2c receptor, 0.001 to 0.5 µM; on 5-HT2c receptor (read-out: Ki for 5-HT2c receptor) it was 0.024 µM; in test [1] it was 0.0038 µM; on serotonin transporter, above 10 µM; in test [2] it was above 10 µM. The Ki on H1 histamine receptor (setting [3]) was 0.0085 µM; on H1 histamine receptor (setting [4]) it was at most 0.1 µM; on 5-HT2 receptor it was 0.001 to 0.5 µM; at 5-HT2 receptor (read-out: Ki for 5-HT2 receptors), 0.004 µM.
`Oc1ccc2c(c1)Cc1ccccc1C21CCN(Cc2ccccc2)C1` (stereo not drawn) [Compound 18, 3-Hydroxy-9,9-[spiro-3′-(n-benzyl)-pyrrolidinyl]-9,10-dihydroanthracene]: the Ki in test [1] came to 0.33 µM.
As for `c1ccc2c(c1)Oc1ccccc1C21CCNC1` [Compound 30, Spiro[xanthenyl]-9,3′-pyrrolidine], the results for the Ki (in test [1]; at H1 histamine receptor (setting [3]); on H1 histamine receptor (setting [4])) were 0.04 µM, 0.051 µM and at most 0.1 µM, respectively.
